{
  "source": "paper PMC9950431",
  "about": "“A bivalent remipede toxin promotes calcium release via ryanodine receptor activation” (Nature Communications, 2023)",
  "tested_on": "CaV2.2",
  "assay": "FLIPR Ca2+ assay, inhibition of endogenous CaV2.2",
  "assay_type": "cell-based, human",
  "conditions": "for Ca2+ response relative to control response: 3 µM Xt3a pre-treatment, KCl 90 mM/CaCl2 5 mM + nifedipine 10 μM, over 300 s",
  "procedure": "SH-SY5Y human neuroblastoma cells (European Collection of Authenticated Cell Culture, Sigma Aldrich, 94030304-1VL) were cultured in RPMI media (ThermoFisher Scientific, Scoresby, Australia) supplemented with 15% foetal bovine serum and L-glutamine (1 mM) and passaged at approximately 80% confluency with TrypLE Express (Thermo Fisher, Australia). For fluorescence imaging, cells were plated on CellBIND (Corning) 384-well black-walled imaging plates at a density of 20,000–30,000 cells/well in complete media and cultured for 48 h at 37 °C/5% CO2.\nBriefly, SH-SY5Y cells were loaded with Calcium 4 no-wash dye (Molecular Devices) diluted in physiological salt solution (composition in mM: NaCl 140, D-glucose 11.5, KCl 5.9, MgCl2 1.4, NaH2PO4 1.2, NaHCO3 5, CaCl2 1.8, HEPES 10) for 30 min at 37 °C. A two-addition FLIPR^Tetra (Molecular Devices) protocol using the following settings was used to measure fluorescence responses: excitation 470–495 nm; emission 515–575 nm; excitation intensity 80%; excitation duration 0.8 s; gain 140; read interval 1/s; read number 300/addition. Responses mediated via endogenously expressed ion channels were elicited by addition of: choline (30 μM)/PNU-120596 (10 μM) for α7 nAChR-mediated responses; nicotine (30 μM) for α3β2/α3β4 nAChR-mediated responses; KCl (90 mM)/CaCl2 (5 mM) for CaV1.3-mediated responses; KCl (90 mM)/CaCl2 (5 mM) + nifedipine (10 μM) for CaV2.2-mediated responses; vertridine (70 μM) for NaV1.2-mediated responses; and veratridine (4 μM)/OD1 (300 nM) for NaV1.7-mediated responses. Raw fluorescence readings were converted to response over baseline using the analysis tool Screenworks 3.1.1.4 (Molecular Devices) and were expressed relative to the maximum increase in fluorescence of control responses and plotted using GraphPad Prism 9.3.1.\nIn the cell-based FLIPR assays statistical analysis was performed using GraphPad Prism 9.3.1. Statistical significance was defined as p < 0.05, and determined by one-sample t-test assessing difference to the control value of 100%. In α7 nAChR, α3-containing nAChR, CaV1.3, CaV2.2, NaV1.2 and NaV1.7 channels (Supplementary Fig. 5B), with distribution (t) and degrees of freedom (df) being: t = 0.9683, df = 2 (α7); t = 1.338, df = 2 (α3); t = 1.775, df = 2 (NaV1.2); t = 1.478",
  "data": [
    {"substance": "φ-Xibalbin3-Xt3a", "values": [
      {"measurement": "Ca2+ response relative to control response", "setting": "replicate 1", "result": 99.2207, "unit": "%"},
      {"measurement": "Ca2+ response relative to control response", "setting": "replicate 2", "result": 92.2928, "unit": "%"},
      {"measurement": "Ca2+ response relative to control response", "setting": "replicate 3", "result": 79.9392, "unit": "%"},
      {"measurement": "inhibition of Ca2+ responses", "setting": "Xt3a 3 µM", "result": "did not inhibit Ca^2+ responses"}
    ]}
  ]
}
